Assay results published in ChEMBL document CHEMBL3301361, “Experimental in vitro DMPK and physicochemical data on a set of publicly disclosed compounds”.
Values after ≈ are worked out from the molar mass of the structure shown.

Experiments:
physchem [1] = experiment: physchem
in vitro [2] = settings: human
physchem [3] = settings: octan-1-ol/water
physchem [4] = settings: pH 7.4 buffer
in vitro [5] = settings: human, plasma, PPB
in vitro [6] = settings: SD, HW or BN, rat, plasma
in vitro [7] = settings: human, hepatocytes
in vitro [8] = settings: hepatocytes

Compound	pKa (physchem [1])	logD (physchem [3]; pH 7.4, LogD7.4)	further results
CCOC(=O)N1CCC(Nc2cc(OC)ccn2)CC1	7.2	–	microsomal CLint (in vitro [2]; liver microsomes): 4 µL/min/mg
CCOC(=O)N1CCC(Nc2ccccn2)CC1	6.6	–	–
COc1ccnc(NC2CCN(C(=O)c3ccccc3)CC2)c1	6.85	2.06	microsomal CLint (in vitro [2]; liver microsomes): < 3 µL/min/mg
COc1ccnc(NC2CCN(C(=O)c3ccc(Cl)cc3)CC2)c1	7.2	2.82	–
CC(C)(C)NC(=O)[C@@H]1C[C@@H]2CCCC[C@@H]2CN1C[C@@H](O)[C@H](Cc1ccccc1)NC(=O)[C@H](CC(N)=O)NC(=O)c1ccc2ccccc2n1	7.14	–	solubility thermodynamic (physchem [4]): 36.3 µM (≈ 24.4 µg/mL); fraction unbound at 5 h (in vitro [5]): 0.0114; fraction unbound at 5 h (in vitro [6]): 0.0048
c1ccc(SCc2ccccn2)cc1	3.8	–	–
NC1=NC(c2cccs2)Nc2cccc(F)c21 (configuration not stated)	8.73	0.91	–
Cc1cc(N)nc(CCNC(=O)c2ccc(C#N)cc2)c1	7.1	1.62	solubility thermodynamic (physchem [4]): 64.6 µM (≈ 18.1 µg/mL)
CCOC(=O)N1CCC(Nc2cc(Cl)ccn2)CC1	5.3	–	–
C[C@H]1CN=C(N)c2sccc2O1	11	–	microsomal CLint (in vitro [2]; microsomes): 7 µL/min/mg
COc1ccc(CNc2cc(C)ccn2)c(O)c1	6.8	–	–
COc1ccccc1CNc1cc(C)ccn1	7.1	3.28	–
Cc1ccnc(NCc2ccccc2O)c1	6.8	3.35	–
c1ccc(CSc2nc3ccccc3[nH]2)cc1	4.2	–	–
Cc1ccnc(NCc2c(O)ccc3ccccc23)c1	6.6	–	–
O=C(CO)N1CCC(c2[nH]nc(-c3ccc(Cl)cc3F)c2-c2ccncn2)CC1	–	1.79	solubility thermodynamic (physchem [4]): 7.8 µM (≈ 3.24 µg/mL); hepatocyte CLint (in vitro [7]): < 3 µL/min/1e6 cells; fraction unbound at 5 h (in vitro [5]): 0.253; hepatocyte CLint (in vitro [8]): < 3 µL/min/1e6 cells; microsomal CLint (in vitro [2]; microsomes): < 3 µL/min/mg; fraction unbound at 5 h (in vitro [6]): 0.324
O=C(O)COc1ccc(Cl)cc1CN1CCC(S(=O)(=O)c2ccccc2)CC1	7.8	0.48	–
CCOC(=O)N1CCC2(CC1)N=C(N)c1sccc1N2	10.5	–	–
N#Cc1ccc(Cl)cc1O[C@H](CCN)c1ccccc1	10.3	0.76	microsomal CLint (in vitro [2]; liver microsomes): 4 µL/min/mg
c1ccc(CSc2nnc([C@@H]3CCCN3)o2)cc1	7.03	–	–
CCOC(=O)N1CCC2(CC1)N=C(N)c1c(F)cccc1N2	9.1	–	–
N#Cc1ccc(C(=O)N2CCC3(CC2)N=C(N)c2c(F)ccc(F)c2N3)cc1	8.15	0.86	fraction unbound at 5 h (in vitro [5]): 0.285

Compound	pKa (physchem [1])	logD (physchem [3]; pH 7.4, LogD7.4)	further results
NC1=NC(c2ccccc2)Nc2ccccc21 (configuration not stated)	9.83	–	–
NCC(Oc1cc(Cl)ccc1Cl)c1ccccc1 (configuration not stated)	8.5	–	–
Cc1ccnc(NCc2ccccc2)c1	7	3.08	–
O=C(O)/C=C/c1cccnc1	4.4	–	–
Nc1ccc(OCC(=O)O)c(-c2ccccc2)c1	5.1	–	microsomal CLint (in vitro [2]; liver microsomes): < 3 µL/min/mg
CCC(CCNC)Oc1cc(Cl)ccc1C#N (configuration not stated)	10.1	0.38	microsomal CLint (in vitro [2]; liver microsomes): < 3 µL/min/mg
CNCC[C@@H](Oc1cc(Cl)ccc1C#N)c1ccccc1	9.9	–	hepatocyte CLint (in vitro [8]): > 150 µL/min/1e6 cells
CNCC[C@@H](Oc1cc(C(F)(F)F)ccc1C#N)c1ccccc1	10.4	1.3	microsomal CLint (in vitro [2]; microsomes): < 3 µL/min/mg
Cc1ccc(C#N)c(S[C@H](CCN)c2ccccc2)n1	9.8	–	–
CN(C(=O)Cc1ccc(S(=O)(=O)N(C)C)cc1)C1CCN(CCC(c2ccccc2)c2ccccc2)CC1	8.1	–	–
CC(=O)Nc1ccc(CNc2[nH]nc3ccnc(Oc4ccccc4)c23)cc1	3.2	3.03	microsomal CLint (in vitro [2]; liver microsomes): 12 µL/min/mg
CCCCc1nc2c(N)nc3ccccc3c2n1CC(C)C	7.3	3.82	fraction unbound at 5 h (in vitro [5]): 0.062; microsomal CLint (in vitro [2]; liver microsomes): < 3 µL/min/mg; fraction unbound at 5 h (in vitro [6]): 0.0307
CC(C)(C)NS(=O)(=O)c1cncc(-c2ccc3nc(NC(=O)NCC(=O)N4CCCC4)nn3c2)c1	–	1.37	solubility thermodynamic (physchem [4]): 6.6 µM (≈ 3.3 µg/mL); hepatocyte CLint (in vitro [7]): 4.79 µL/min/1e6 cells; fraction unbound at 5 h (in vitro [5]): 0.329; hepatocyte CLint (in vitro [8]): < 3 µL/min/1e6 cells; microsomal CLint (in vitro [2]; microsomes): 5 µL/min/mg; fraction unbound at 5 h (in vitro [6]): 0.232
O=C(CN1C2=NCCN2c2ccccc21)c1ccc(Cl)cc1	9.1	2.62	fraction unbound at 5 h (in vitro [5]): 0.339; microsomal CLint (in vitro [2]; microsomes): 4 µL/min/mg
COc1cccc(C(=O)NCCN2CCC(Oc3ccc(Cl)c(Cl)c3)CC2)c1	7.4	–	solubility thermodynamic (physchem [4]): 9.5 µM (≈ 4.02 µg/mL); fraction unbound at 5 h (in vitro [5]): 0.0008; microsomal CLint (in vitro [2]; liver microsomes): 9 µL/min/mg
COc1ccc(C2(c3cccc(-c4cncnc4)c3)N=C(C)C(N)=N2)cc1C (configuration not stated)	5.83	–	fraction unbound at 5 h (in vitro [5]): 0.062; fraction unbound at 5 h (in vitro [6]): 0.271
CCc1nc2c(C)cc(C)nc2[nH]1	5.5	–	–
COc1cccc2c1c(NS(=O)(=O)c1ccc(Cl)s1)nn2Cc1cccc(CNC(=O)[C@@H]2COCCN2)c1	–	1.61	solubility thermodynamic (physchem [4]): 27.5 µM (≈ 15.8 µg/mL); hepatocyte CLint (in vitro [7]): 20 µL/min/1e6 cells; fraction unbound at 5 h (in vitro [5]): 0.016; hepatocyte CLint (in vitro [8]): 26 µL/min/1e6 cells; microsomal CLint (in vitro [2]; microsomes): 40.5 µL/min/mg; fraction unbound at 5 h (in vitro [6]): 0.0156
O=C(NCC12CC3CC(CC(C3)C1)C2)c1cc(CC2CCNCC2)ccc1Cl	10.1	1.49	fraction unbound at 5 h (in vitro [5]): 0.0872
O=C(c1ccccc1)N1CCN(Cc2ccccc2)CC1	6.2	–	–
C[C@H](CO)Nc1nc(SCc2cccc(F)c2F)nc2nc(N)cnc12	4.2	2.89	fraction unbound at 5 h (in vitro [5]): 0.0447; microsomal CLint (in vitro [2]; liver microsomes): 12 µL/min/mg
O=S(=O)(c1ccccc1)N1CCN(Cc2ccccc2)CC1	5.6	–	hepatocyte CLint (in vitro [8]): > 150 µL/min/1e6 cells; microsomal CLint (in vitro [2]; liver microsomes): 64 µL/min/mg

Compound	pKa (physchem [1])	logD (physchem [3]; pH 7.4, LogD7.4)	further results
Cc1ncc[nH]1	7.8	–	–
CCc1ncc[nH]1	7.8	–	–
Nc1nc2ccccc2[nH]1	7.2	–	microsomal CLint (in vitro [2]; liver microsomes): < 3 µL/min/mg
NC1=Nc2cccc3cccc(c23)N1	7.6	–	–
NC1=NC(c2ccc(F)cc2)Nc2cccc(F)c21 (configuration not stated)	9	–	–
NC1=NC(c2ccco2)Nc2c(F)ccc(F)c21 (configuration not stated)	8.2	1.2	–
c1ccc(CSc2nc3ccccc3o2)nc1	4.3	–	–
COc1ccc(OC)c(CNc2[nH]nc3cccc(Oc4ccccc4)c23)c1	3.8	–	microsomal CLint (in vitro [2]; liver microsomes): 11 µL/min/mg
CCOC(=O)N1CCC2(CC1)N=C(N)c1c(Cl)cccc1N2	9	–	–
N#Cc1ccc(C(=O)N2CCC3(CC2)N=C(N)c2c(F)cccc2N3)cc1	9	0.66	–
NC1=NC(c2ccco2)Nc2ccccc21 (configuration not stated)	9.13	–	–
CON(C)C(=O)c1c(Cn2c(C)nc(Cl)c2Cl)sc2c1c(=O)n(C)c(=O)n2CC(C)C	2.7	2.23	solubility thermodynamic (physchem [4]): 513 µM (≈ 250 µg/mL)
N#Cc1ccc(C(=O)N2CCC3(CC2)N=C(N)c2c(F)ccc(F)c2N3)cn1	8.4	0.79	fraction unbound at 5 h (in vitro [5]): 0.134
Cc1nc(N)sc1C	6.3	–	–
Cc1nc2c(OCc3ccccc3)cccn2c1CC#N	5.6	–	–
NCCc1ccc(Cl)cc1	10.1	–	–
NCCc1ccc([N+](=O)[O-])cc1	9.4	–	–
O=C(NCC12CC3CC(CC(C3)C1)C2)c1cc(OCCCNCCCO)ccc1Cl	9.5	1.41	microsomal CLint (in vitro [2]; liver microsomes): 27 µL/min/mg
O=C(NCC12CC3CC(CC(C3)C1)C2)c1cc(OC2CCNCC2)ncc1Cl	9.1	1.56	–
Cc1cc(C)nc(N)c1	7.7	0.85	–
Cc1ccnc(N)c1N	7.2	–	–
NC1=NC(C2CC2)Cc2ccccc21 (configuration not stated)	> 11	–	–

Compound	pKa (physchem [1])	logD (physchem [3]; pH 7.4, LogD7.4)	further results
NC1=NC(C2CC2)Cc2ccsc21 (configuration not stated)	> 11	–	–
Cn1c([S+]([O-])Cc2ccccn2)nc2ccccc21 (configuration not stated)	2.6	–	–
CCN(CC)CCNC(=O)c1ccc(NC(C)=O)cc1 [ACECAINIDE]	9.14	–	–
CCN(CC)C(C)C(=O)c1ccccc1 (configuration not stated) [DIETHYLPROPION]	8.8	–	logD (physchem [3]; pH 7.4): 1.18
CN(C)CCn1cnc2c1c(=O)n(C)c(=O)n2C [DIMETHAZAN]	7.5	–	–
CN(C)CCC=C1c2ccccc2COc2ccccc21 [DOXEPIN]	8.5	2.15	–
CCc1cc(C(N)=S)ccn1 [ETHIONAMIDE]	4.4	1.52	fraction unbound at 5 h (in vitro [6]): 0.54
COc1ccc2c3c1O[C@H]1C[C@@H](O)C=C[C@@]31CCN(C)C2 [GALANTAMINE]	8.21	–	–
Cc1ccc(C)c(OCCCC(C)(C)C(=O)O)c1 [GEMFIBROZIL]	–	0.72	hepatocyte CLint (in vitro [7]): 66.1 µL/min/1e6 cells; fraction unbound at 5 h (in vitro [5]): 0.0023; hepatocyte CLint (in vitro [8]): > 150 µL/min/1e6 cells; microsomal CLint (in vitro [2]; microsomes): 29.5 µL/min/mg; fraction unbound at 5 h (in vitro [6]): 0.0153
O=C(CCCN1CCC(O)(c2ccc(Cl)cc2)CC1)c1ccc(F)cc1 [HALOPERIDOL]	8.75	2.67	solubility thermodynamic (physchem [4]): 50.1 µM (≈ 18.8 µg/mL); fraction unbound at 5 h (in vitro [6]): 0.186
CN1CCC(=C2c3ccccc3CC(=O)c3sccc32)CC1 [KETOTIFEN]	9	–	–
CC12CC3CC(C)(C1)CC(N)(C3)C2 [MEMANTINE]	10.7	0.06	–
Cc1ncc([N+](=O)[O-])n1CCO [METRONIDAZOLE]	2.51	-0.11	–
COc1ccc(OC)c(C(O)CNC(=O)CN)c1 (configuration not stated) [MIDODRINE]	7.59	–	–
c1ccc2c(CC3=NCCN3)cccc2c1 [NAPHAZOLINE]	10.3	–	–
C=CCOc1ccccc1OCC(O)CNC(C)C (configuration not stated) [OXPRENOLOL]	9.69	0.2	–
CCOCc1nc2c(N)nc3ccccc3c2n1CC(C)(C)O [RESIQUIMOD]	7.1	1.69	solubility thermodynamic (physchem [4]): 417 µM (≈ 131 µg/mL); fraction unbound at 5 h (in vitro [6]): 0.574
Cc1nc2n(c(=O)c1CCN1CCC(c3noc4cc(F)ccc34)CC1)CCCC2 [RISPERIDONE]	8.49	–	fraction unbound at 5 h (in vitro [6]): 0.0544; logD (physchem [3]; pH 7.4): 2.05
CC(C)(C)c1ccc(C(O)CCCN2CCC(C(O)(c3ccccc3)c3ccccc3)CC2)cc1 (configuration not stated) [TERFENADINE]	8.8	3.99	solubility thermodynamic (physchem [4]): 5.4 µM (≈ 2.55 µg/mL); fraction unbound at 5 h (in vitro [5]): 0.0084
c1ccc2c(c1)CCCC2C1=NCCN1 (configuration not stated) [TETRAHYDROZOLINE]	10.6	–	–
c1ccc(CC2=NCCN2)cc1 [TOLAZOLINE]	10.7	–	–
Cc1cc(C(C)(C)C)cc(C)c1CC1=NCCN1 [XYLOMETAZOLINE]	10.6	–	–
